Test [1] concerns the target T1, Adenine phosphoribosyltransferase (Homo sapiens, UniProt P07741).
T1 sequence (P07741 whole entry): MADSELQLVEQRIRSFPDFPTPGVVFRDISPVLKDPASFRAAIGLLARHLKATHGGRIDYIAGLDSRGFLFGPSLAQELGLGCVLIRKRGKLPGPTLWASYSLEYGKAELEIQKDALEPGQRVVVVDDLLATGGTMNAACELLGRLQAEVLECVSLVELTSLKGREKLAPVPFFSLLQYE

The target of test [2] is Inosine-5'-monophosphate dehydrogenase 2 (Homo sapiens, UniProt P12268).
Test [3] concerns the target LIM domain kinase 2 (Homo sapiens, UniProt P53671).
Test [4] concerns the target Mitogen-activated protein kinase 11 (Homo sapiens, UniProt Q15759).
In test [5] the target is T2, DNA replication licensing factor MCM4 (Homo sapiens, UniProt P33991).
T2 sequence (P33991 whole entry): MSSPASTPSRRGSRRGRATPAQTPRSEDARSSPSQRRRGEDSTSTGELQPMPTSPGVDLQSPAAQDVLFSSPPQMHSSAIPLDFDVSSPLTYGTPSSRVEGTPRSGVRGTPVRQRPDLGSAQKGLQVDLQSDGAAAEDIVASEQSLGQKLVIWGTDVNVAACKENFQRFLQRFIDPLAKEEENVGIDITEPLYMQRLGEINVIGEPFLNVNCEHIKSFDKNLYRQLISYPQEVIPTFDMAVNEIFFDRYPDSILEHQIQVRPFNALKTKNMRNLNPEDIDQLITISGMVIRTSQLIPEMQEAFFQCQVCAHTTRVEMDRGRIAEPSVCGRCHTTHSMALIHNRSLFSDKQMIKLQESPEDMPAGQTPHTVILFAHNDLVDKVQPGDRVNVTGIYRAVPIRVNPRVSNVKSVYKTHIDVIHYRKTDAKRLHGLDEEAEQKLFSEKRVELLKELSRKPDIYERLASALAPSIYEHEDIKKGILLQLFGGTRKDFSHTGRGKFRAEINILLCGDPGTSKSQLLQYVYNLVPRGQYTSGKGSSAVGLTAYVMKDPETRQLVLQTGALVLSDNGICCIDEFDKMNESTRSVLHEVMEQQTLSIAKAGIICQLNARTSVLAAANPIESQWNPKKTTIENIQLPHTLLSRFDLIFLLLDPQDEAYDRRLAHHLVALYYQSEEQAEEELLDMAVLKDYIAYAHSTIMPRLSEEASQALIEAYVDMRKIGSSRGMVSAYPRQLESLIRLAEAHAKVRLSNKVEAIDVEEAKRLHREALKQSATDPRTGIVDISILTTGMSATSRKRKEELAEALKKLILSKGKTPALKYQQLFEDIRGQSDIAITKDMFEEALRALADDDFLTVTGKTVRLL

Test [6] deals with Phosphatidylethanolamine-binding protein 1 (Homo sapiens, UniProt P30086).
The target in test [7] is Ras-related protein Rab-6A (Homo sapiens, UniProt P20340).
Test [8] addresses T3, Signal recognition particle receptor subunit alpha (Homo sapiens, UniProt P08240).
T3 sequence (P08240 whole entry): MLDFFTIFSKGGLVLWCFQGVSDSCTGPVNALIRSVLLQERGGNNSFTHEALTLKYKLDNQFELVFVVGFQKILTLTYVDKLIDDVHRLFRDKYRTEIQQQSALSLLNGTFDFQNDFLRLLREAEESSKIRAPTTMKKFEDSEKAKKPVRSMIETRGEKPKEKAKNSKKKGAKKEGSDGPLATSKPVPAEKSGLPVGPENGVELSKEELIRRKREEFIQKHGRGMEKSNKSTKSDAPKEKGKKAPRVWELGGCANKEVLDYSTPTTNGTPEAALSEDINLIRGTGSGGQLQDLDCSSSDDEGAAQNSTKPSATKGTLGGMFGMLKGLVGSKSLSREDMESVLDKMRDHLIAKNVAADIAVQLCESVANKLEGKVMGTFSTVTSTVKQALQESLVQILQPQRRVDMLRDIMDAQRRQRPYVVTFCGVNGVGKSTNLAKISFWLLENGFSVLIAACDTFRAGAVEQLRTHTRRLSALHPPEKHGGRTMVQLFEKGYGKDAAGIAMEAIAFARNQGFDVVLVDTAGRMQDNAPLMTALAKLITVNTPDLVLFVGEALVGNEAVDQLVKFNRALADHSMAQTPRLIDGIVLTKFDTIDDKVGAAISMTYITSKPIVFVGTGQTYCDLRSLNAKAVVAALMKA

The source made the active and inactive calls. Where only a bound is given, the exact number is not on record here.
Note: in the data inactive means no Kd found up to 30 µM.

Chain of LIM domain kinase 2 (P53671 whole entry, the tested form may be a part): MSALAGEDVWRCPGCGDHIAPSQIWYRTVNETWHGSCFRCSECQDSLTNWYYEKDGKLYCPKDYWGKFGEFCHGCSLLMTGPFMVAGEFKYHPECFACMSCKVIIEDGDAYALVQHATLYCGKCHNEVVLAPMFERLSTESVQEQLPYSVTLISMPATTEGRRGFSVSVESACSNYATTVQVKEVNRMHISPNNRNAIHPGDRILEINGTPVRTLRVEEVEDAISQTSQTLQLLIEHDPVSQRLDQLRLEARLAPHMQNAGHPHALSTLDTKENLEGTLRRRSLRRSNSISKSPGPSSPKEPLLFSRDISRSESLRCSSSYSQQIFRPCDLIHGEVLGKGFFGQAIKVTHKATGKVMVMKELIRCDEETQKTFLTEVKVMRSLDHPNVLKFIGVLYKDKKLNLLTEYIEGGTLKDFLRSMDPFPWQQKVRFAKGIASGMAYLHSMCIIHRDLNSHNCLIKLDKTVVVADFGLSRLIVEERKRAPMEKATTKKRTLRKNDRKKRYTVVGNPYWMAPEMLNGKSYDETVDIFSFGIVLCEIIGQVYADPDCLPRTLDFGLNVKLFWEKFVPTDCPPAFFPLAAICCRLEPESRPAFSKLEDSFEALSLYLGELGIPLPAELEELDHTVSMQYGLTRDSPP
Chain of Mitogen-activated protein kinase 11 (Q15759 whole entry): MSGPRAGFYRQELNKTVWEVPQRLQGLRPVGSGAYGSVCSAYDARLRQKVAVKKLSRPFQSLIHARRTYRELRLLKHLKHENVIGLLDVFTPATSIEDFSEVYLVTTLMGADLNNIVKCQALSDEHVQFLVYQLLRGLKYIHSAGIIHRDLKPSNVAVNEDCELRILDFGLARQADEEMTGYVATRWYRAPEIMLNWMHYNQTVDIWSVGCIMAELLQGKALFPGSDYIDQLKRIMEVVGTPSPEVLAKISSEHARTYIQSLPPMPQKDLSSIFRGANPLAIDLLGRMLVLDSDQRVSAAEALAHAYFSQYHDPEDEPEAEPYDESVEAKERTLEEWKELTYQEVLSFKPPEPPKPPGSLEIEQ
Chain of Phosphatidylethanolamine-binding protein 1 (P30086 whole entry): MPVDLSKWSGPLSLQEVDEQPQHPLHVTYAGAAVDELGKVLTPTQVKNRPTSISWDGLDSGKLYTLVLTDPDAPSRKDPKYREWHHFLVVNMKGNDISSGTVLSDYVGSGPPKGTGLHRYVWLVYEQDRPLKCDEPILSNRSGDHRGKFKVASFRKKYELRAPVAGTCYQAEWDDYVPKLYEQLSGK
Chain of Ras-related protein Rab-6A (P20340 whole entry): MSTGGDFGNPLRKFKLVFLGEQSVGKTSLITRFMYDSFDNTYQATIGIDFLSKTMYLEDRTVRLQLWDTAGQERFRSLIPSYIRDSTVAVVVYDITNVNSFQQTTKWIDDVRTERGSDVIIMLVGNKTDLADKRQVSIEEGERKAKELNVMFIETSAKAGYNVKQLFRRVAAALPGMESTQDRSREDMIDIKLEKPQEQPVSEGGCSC

As a reminder, the Kd is the constant that tells how readily two partners part at equilibrium. Turning to `C[C@@H](Oc1cc(C(=O)Nc2ccc(C(=O)N3CCN(C)CC3)cc2)nnc1N)c1c(Cl)ccc(F)c1Cl`, the Kd in test [1], in test [2], in test [3], in test [4], in test [5] and in test [6] was > 30 µM (inactive) in each case. For the same compound, the Kd in test [7] and in test [8] was > 30 µM (inactive) throughout.

With `C=CC(=O)N1CCC[C@H](n2c(=O)n(-c3ccc(Oc4ccccc4)cc3)c3c(N)ncnc32)C1`, the Kd in test [1], in test [2], in test [3], in test [4], in test [5] and in test [6] was > 30 µM (inactive) throughout. For the same compound, in test [8], the Kd was > 30 µM (inactive).

As to `Cc1nc2cc(-c3nn(C(C)C)c4ncnc(N)c34)ccc2o1`, the Kd in test [1], in test [2], in test [3], in test [4], in test [5] and in test [6] was > 30 µM (inactive) throughout. Also, the Kd in test [7] and in test [8] was > 30 µM (inactive) throughout.

Regarding `COCc1c(-c2ccc(NC(=O)Nc3cc(C(F)(F)F)ccc3F)c(F)c2)c2c(N)ncnn2c1CN1CCOCC1`, the Kd in test [1], in test [2], in test [3], in test [4], in test [5] and in test [6] was > 30 µM (inactive) in each case. Besides, the Kd in test [7] and in test [8] was > 30 µM (inactive) throughout.

Regarding `COc1cc(Nc2ncc3c(n2)-c2ccc(Cl)cc2C(c2c(F)cccc2OC)=NC3)ccc1C(=O)O` [ALISERTIB], the Kd in test [1] was > 30 µM (inactive); in test [2], > 30 µM (inactive); in test [3], > 30 µM (inactive); in test [4] it was > 30 µM (inactive); in test [5], 0.629 µM; in test [6], > 30 µM (inactive). Moreover, the Kd in test [7] and in test [8] was > 30 µM (inactive) in each case.

For the compound `Cc1nc(NC(=O)N2CCC[C@H]2C(N)=O)sc1-c1ccnc(C(C)(C)C(F)(F)F)c1` [ALPELISIB], the Kd in test [1], in test [2], in test [3], in test [5], in test [6] and in test [7] was > 30 µM (inactive) in each case. In test [8], the Kd is > 30 µM (inactive).

For the compound `Cc1csc(-c2nnc(Nc3ccc(Oc4ncccc4-c4ccnc(N)n4)cc3)c3ccccc23)c1` [AMG-900], the Kd in test [1], in test [2], in test [3], in test [4], in test [5] and in test [6] was > 30 µM (inactive) each time. For the same compound, the Kd in test [7] and in test [8] was > 30 µM (inactive) in each case.

Take `O=C(Nc1c[nH]nc1-c1nc2cc(CN3CCOCC3)ccc2[nH]1)NC1CC1` [AT-9283]: the Kd in test [1] is > 30 µM (inactive); in test [2] it was > 30 µM (inactive); in test [3], 4.43 µM (active); in test [4], > 30 µM (inactive); in test [5] it was > 30 µM (inactive); in test [6], > 30 µM (inactive). In addition, the Kd in test [7] and in test [8] was > 30 µM (inactive) in each case.

Turning to `CNC(=O)c1ccccc1Sc1ccc2c(/C=C/c3ccccn3)n[nH]c2c1` [AXITINIB], the Kd in test [1], in test [2], in test [5], in test [6], in test [7] and in test [8] was > 30 µM (inactive) in each case.

Consider `COc1cc([C@@H]2c3cc4c(cc3[C@H](O)[C@H]3COC(=O)[C@@H]23)OCO4)cc(OC)c1OC` [AXL-1717], for which the Kd in test [1], in test [2], in test [3], in test [4], in test [5] and in test [6] was > 30 µM (inactive) throughout. Besides, the Kd in test [7] and in test [8] was > 30 µM (inactive) in each case.

With `NC(=O)Nc1cc(-c2cccc(F)c2)sc1C(=O)N[C@H]1CCCNC1` [AZD-7762], the Kd in test [1], in test [2], in test [3], in test [4], in test [5] and in test [6] was > 30 µM (inactive) each time. The Kd in test [7] and in test [8] was > 30 µM (inactive) throughout.

`Cn1cnc2c(F)c(Nc3ccc(Br)cc3F)c(C(=O)NOCCO)cc21` [BINIMETINIB]: the Kd in test [1], in test [2], in test [3], in test [4], in test [5] and in test [6] was > 30 µM (inactive) throughout. In addition, the Kd in test [7] and in test [8] was > 30 µM (inactive) in each case.

Consider `CCn1c(C(=O)N(C2CC2)C2CC2)cc2c3c(ncn3C)c(Nc3cc(C)n(C)n3)nc21` [BMS-911543], for which the Kd in test [1], in test [2], in test [3], in test [4], in test [5] and in test [6] was > 30 µM (inactive) in each case. In addition, the Kd in test [7] and in test [8] was > 30 µM (inactive) in each case.

As for `COc1cc2ncnc(Oc3cccc(NC(=O)Nc4cc(C(C)(C)C(F)(F)F)on4)c3)c2cc1OC` [CEP-32496], the Kd is > 30 µM (inactive) in test [1]; > 30 µM (inactive) in test [2]; > 30 µM (inactive) in test [3]; 0.872 µM (active) in test [4]; > 30 µM (inactive) in test [5]; > 30 µM (inactive) in test [6]. In addition, the Kd in test [7] and in test [8] was > 30 µM (inactive) throughout.

As for `C[C@@H](Oc1cc(-n2cnc3ccc(CN4CCN(C)CC4)cc32)sc1C(N)=O)c1ccccc1C(F)(F)F` [GSK-461364], the Kd in test [1], in test [2], in test [5], in test [6], in test [7] and in test [8] was > 30 µM (inactive) in each case.

On to `O=C(NOCCO)c1cc(CN2OCCCC2=O)c(F)c(F)c1Nc1ccc(I)cc1F` [RO-4987655], for which the Kd in test [1], in test [2], in test [5], in test [6], in test [7] and in test [8] was > 30 µM (inactive) in each case.

The values above are taken from ChEMBL document CHEMBL3991601, “The target landscape of clinical kinase drugs” (Science, 2017).
